Measurements from patent US12286401B2, “Small molecules that sensitize HIV-1 infected cells to antibody dependent cellular cytotoxicity” (THE TRUSTEES OF THE UNIVERSITY OF PENNSYLVANIA, priority 2018, dated 2025).

Key:
[1] = system: CH58TF infected primary CD4+ T-cells; experiment: HIV+ patient sera/plasma recognition of CH58TF infected primary CD4+ T-cells (flow cytometry cell-surface staining); format: cell-based, HIV-1; settings: for fold induction at 50 µM: Human immunodeficiency virus 1, T-cell, read-out: Fold Over DMSO (patient sera, n = 3)
Description: (§1) Cell-surface staining of primary CD4+ T cells from healthy HIV uninfected individuals or CEM-NKr cells is performed, as described in Prevost, “Influence of the Envelope gp120 Phe 43 Cavity on HIV-1 Sensitivity to Antibody-Dependent Cell-Mediated Cytotoxicity Responses,” 2017, J. Virol 91; Richard, “CD4 mimetics sensitize HIV-1-infected cells to ADCC,” 2015, Proc. Natl. Acad. Sci. USA, 112:E2687-2694; Richard, “Small CD4 Mimetics Prevent HIV-1 Uninfected Bystander CD4+ T Cell Killing Mediated by Antibody-dependent Cell-mediated Cytotoxicity,” 2016, EBioMedicine 3:122-134; Veillette, “The HIV-1 gp120 CD4-Bound Conformation Is Preferentially Targeted by Antibody-Dependent Cellular Cytotoxicity-Mediating Antibodies in Sera from HIV-1-Infected Individuals,” 2015, J. Virol., 89:545-551; Veillette, “Interaction with cellular CD4 exposes HIV-1 envelope epitopes targeted by antibody-dependent cell-mediated cytotoxicity,” 2014, J. Virol., 88:2633-2644; Richard, “Uninfected Bystander Cells Impact the Measurement of HIV-Specific Antibody-Dependent Cellular Cytotoxicity Responses,” 2018, MBio. 9(2): e00358-18; Richard, “BST-2 Expression Modulates Small CD4-Mimetic Sensitization of HIV-1-Infected Cells to Antibody-Dependent Cellular Cytotoxicity,” 2017, J. Virol. 91(11):e00219-17. Binding of HIV-1 infected cells by HIV+ sera (1:1000 dilution) or anti-Env Abs (such as 17b) is performed […] in vitro infection at 37° C. in presence of different concentrations of the MCG analogs or with equivalent volume of vehicle (DMSO). Cells infected with HIV-1 primary isolates are stained intracellularly for HIV-1 p24 using the Cytofix/Cytoperm Fixation/Permeabilization Kit (BD Biosciences, Mississauga, ON, Canada) and then fluorescent anti-p24 mAb (PE-anti-p24, clone KC57; Beckman Coulter/Immunotech, Hialeah, FL) (1:100 final concentration). The percentage of infected cells (p24^+ or GFP+ cells) is determined by gating the living cell population based on the viability dye staining. Samples are analyzed on an LSRII cytometer (BD Biosciences, Mississauga, ON, Canada) and data analysis is performed using FlowJo vX0.7 (Tree Star, Ashland, OR, USA).
HIV+ Patient Sera (n=3) Recognition of CH58TF Infected Primary CD4+ T-Cells
Staining with patient sera and 50 μM of compounds given as a fold change over DMSO (vehicle).
(§2) Briefly, Primary CD4 T cells isolated from PBMC were infected with HIV-1CH58TF for 48 hours. For cell surface staining, 5 μg/ml 17b (FIG. 15A) or 1:1000 diluted HIV+ plasma (n=15) (FIG. 15B) were used in the presence of the different MCG analogs (50 μM), (+)-BNM-III-170 or with an equivalent volume of vehicle (DMSO). An Alexa Fluor 647-conjugated anti-human IgG secondary Ab was then used for fluorescent labeling. For ADCC (FIG. 15C), infected cells were used as target cells in a FACS-based ADCC assay that measures the killing of infected (p24+ cells). See, Madani, 2016, J. Virol., 90:5031-5046. The assay determines susceptibility to ADCC mediated by a 1/1,000 dilution of plasma from 15 HIV-1-infected individuals in the presence of the different MCG analogs (50 μM), (+)-BNM-III-170 (50 μM) or with an equivalent volume of vehicle (DMSO). Correlation between cell-surface staining with HIV+ plasma and ADCC was calculated using the Spearman rank correlation (FIG. 15D).

[2] = system: HIV-1JR-FL EnvΔCT expressed at the surface of HOS cells; experiment: Cell-based ELISA (CBE), 17b readout; settings: MCG analogs 50 μM; BNM-III-170 5 μM; 2G12 and DMSO normalized
Description: Detection of trimeric HIV-1 Env at the surface of HOS cells was performed by cell-based ELISA, as described in Desormeaux, “The highly conserved layer-3 component of the HIV-1 gp120 inner domain is critical for CD4-required conformational transitions,” J. Virol. 87:2549-2562; Alsahafi, “Effects of the I559P gp41 change on the conformation and function of the human immunodeficiency virus (HIV-1) membrane envelope glycoprotein trimer,” 2015, PLoS One 10:e0122111; and Veillette, “Conformational evaluation of HIV-1 trimeric envelope glycoproteins using a cell-based ELISA assay,” 2014, J. Vis. Exp., 91:51995. To enhance cell-surface expression of HIV-1 EnvRF a stop codon was introduced to replace the codon for Gly 711, truncating the cytoplasmic tail (ACT). Briefly, HOS cells were seeded in T-75 flasks (3×10^6 cells per flask) and transfected the next day with 22.5 μg of Env-expressing plasmids (wild-type and mutants S375W, S375T, H66A, A582T/L587A, etc) using the standard polyethylenimine (PEI, Polyscience Inc, PA, USA) transfection method. Twenty-four hours after transfection, cells were plated in 384-wells plates (2×10^4 cells per well). One day later, cells were washed twice with blocking buffer (10 mg/mL non-fat dry milk, 1.8 mM CaCl2), 1 mM MgCl2, 25 mM Tris, pH 7.5 and 140 mM NaCl) and then incubated for 30 minutes at room temperature with different concentrations of MCG analogs or equivalent volume of vehicle (DMSO). Cells were then incubated for an additional 1 h at room temperature with anti-HIV-1 Env monoclonal antibodies recognizing CD4-induced gp120 epitopes (17b, A32), CD4-binding site gp120 epitopes (VRC03, VRC01, F105, and b12), gp120 V3 glycans (19b, PGT126, PGT122, and 10.1074), gp120 outer domain (2G12), and gp120-gp41 interface (PGT151 and VRC34) epitopes. All ligands were diluted in blocking buffer. A horseradish peroxidase-conjugated antibody specific for the Fc region of human or mouse IgG (Pierce) was then incubated with the samples for 45 minutes at room temperature. For all conditions, cells were washed 5 times with blocking buffer and 5 times with washing buffer (1.8 mM CaCl2), 1 mM MgCl2, 25 mM Tris, pH 7.5 and 140 mM NaCl). HRP enzyme activity was determined after the addition of 20 μl per well of a 1:1 mix of Western Lightning oxidizing and luminol reagents (Perkin Elmer Life Sciences). Light emission was measured with an LB 941 TriStar luminometer (Berthold Technologies) and analysis with Graph Pad software.
The data of Table 2 is given as the fold over BNM-III-170 (5 μM) of Cell-Based ELISA with MCG Analogs (50 μM)—17b readout, 2G12 and DMSO normalized.
To identify molecules able to expose vulnerable Env epitopes, a cell-based ELISA (CBE) assay was adapted, capable of measuring conformational changes of membrane-bound trimeric Env as described in Veillette, 2014, J. Vis. Exp. doi:10.3791/51995:51995; Haim, 2011, PLoS Pathog 7:e1002101, into a high-throughput screening (HTS) platform (FIG. 10A). Briefly, the cytoplasmic-tail deleted HIV-1JR-FL Tier-2/3 Env was expressed on the surface of HOS cells in a 384-well-plate format. The cytoplasmic tail of Env was deleted to enhance Env expression at the cell surface and therefore enhance the sensitivity of the CBE assay. See, Veilette and Haim, 2009, PLoS Pathog 5:e100036. Small molecules or, as a positive control, soluble (sCD4) were added to expose the HIV-1JR-FL EnvΔCT epitope that can be recognized by the CD4i antibody 17b. See, Wyatt, 1995, J. Virol. 69:5723-5733; Rizzuto, 1998, Science 280:1949-1953.
17b binding was detected by a horseradish peroxidase-conjugated (HRP) second antibody, and HRP enzyme activity was measured by Western Lightning oxidizing and luminal reagents. 17b binding in the presence of sCD4 was set as the control (FIG. 10B, blue dots), small molecules that enhanced 17b binding above 25% of the one induced by sCD4 were retested in quadruplicate and only one molecule (UM0059920) was deemed a true positive (FIG. 10B, red dots). […]

[3] = Solubility in PBS; format: physicochemical; settings: Yes/NO
[4] = system: CH58TF infected primary CD4+ T-cells; experiment: Recognition of HIV-1 infected cells by 17b (flow cytometry cell-surface staining); format: cell-based; settings: for fold induction at 50 µM: Human immunodeficiency virus 1, T-cell, read-out: Fold Over DMSO (17b, n = 1)
Description: as §1, §2

| SMILES | fold induction at 50 µM [1] | Fold over BNM-III-170 - 17b binding (±0.05) [2] | Solubility (in PBS) [3] | fold induction at 50 µM [4] | Fold Over DMSO (patient sera, n = 3) ([1]; 50 μM of compounds, staining with HIV+ patient sera, CH58TF infected primary CD4+ T-cells) | Fold Over DMSO (17b, n = 1) ([4]; 50 μM of compounds, 17b staining) |
| --- | --- | --- | --- | --- | --- | --- |
| O=C(Nc1ccc(Cl)c(F)c1)[C@H]1CCCN(S(=O)(=O)C(F)(F)F)C1 [(S)-MCG-III-132] | 1.58 | 0.27 fold | Yes | – | – | – |
| CCS(=O)(=O)N1CCCC(NC(=O)c2ccc(Cl)c(F)c2)C1 (stereo not drawn) [MCG-III-157-C02] | 1.05 | 0.07 fold | Yes | – | – | – |
| Cn1cnc(S(=O)(=O)N2CCC(C(=O)Nc3ccc(Cl)c(F)c3)C2)c1 (stereo not drawn) [MCG-III-157-A04] | 1.28 | 0.34 fold | Yes | – | – | – |
| CCS(=O)(=O)N1CC(C(=O)Nc2ccc(Cl)c(F)c2)Cc2ccccc21 (stereo not drawn) [MCG-III-214-A02] | 3.25 | – | Yes** | 5.16 | – | – |
| CS(=O)(=O)N1CCC(C(=O)Nc2ccc(Cl)c(F)c2)C1 (stereo not drawn) [MCG-III-157-A01] | 1.85 | 0.36 fold | Yes | – | – | – |
| O=C(Nc1ccc(Cl)c(F)c1)C1CNc2ccccc2C1 (stereo not drawn) [MCG-III-209] | 1.82 | – | Yes | 3.23 | – | – |
| O=C(Nc1ccc(Cl)c(F)c1)C1CNCCO1 (stereo not drawn) [MCG-III-196] | – | – | Yes | – | 1.499 fold | 2.595 fold |
| CCN1CC(C(=O)Nc2ccc(Cl)c(F)c2)Cc2ccccc21 (stereo not drawn) [MCG-III-201] | 0.989 | – | Yes | 1.39 | – | – |
| O=C(Nc1ccc(Cl)c(F)c1)[C@H]1CCCN(C(=O)Oc2ccccc2)C1 [(S)-MCG-III-188-A03] | 4.61 | 0.47 fold | – | 3.11 | – | – |
| Cn1cnc(S(=O)(=O)N2CCCC(NC(=O)c3ccc(Cl)c(F)c3)C2)c1 (stereo not drawn) [MCG-III-157-C04] | 0.897 | 0.04 fold | Yes | – | – | – |
